One compound from patent US20050272662A1, “Self-assembled peptide-amphiphiles & self-assembled peptide nanofiber networks presenting multiple signals” (priority 2002, published 2005) can be followed below.

The conditions of this data set: concentration about 10 mg/mL.

Residues, ends and D or L forms follow the SMILES beside them. *: point of attachment. Palmitoyl = CCCCCCCCCCCCCCCC(=O)*

Protocol: The two molecules can be dissolved in pH-adjusted water at a concentration of about 2-30 mg/ml, and preferably about 10 mg/mL.
The molecules were then dissolved in water at a concentration of 10 mg/mL, adjusting the pH to improve solubility. […] In the case of molecule 1, the pH was raised to about pH 8 with 2M and 100 mM KOH, then back-titrated to pH 7.

As to `CCCCCCCCCCCCCCCC(=O)N[C@@H](C)C(=O)N[C@@H](C)C(=O)N[C@@H](C)C(=O)N[C@@H](C)C(=O)NCC(=O)NCC(=O)NCC(=O)N[C@@H](CCCCN)C(=O)N[C@@H](Cc1ccc(O)cc1)C(=O)N[C@H](C(=O)NCC(=O)N[C@@H](CO)C(=O)N[C@@H](CCCNC(=N)N)C(N)=O)[C@@H](C)CC` [Molecule 2] (Palmitoyl-AAAAGGGKYIGSR-NH2), the “appearance of solution in pH-adjusted water” value was “translucent”.
